Entries after “also recorded” stand apart in the source; their conditions may differ.
Columns and labels:
[1] = tested on: CBA/J mice; assay: Mouse BTX-B dry eye model, corneal fluorescein staining (corneal ulceration); format: in vivo; details: for Corneal fluorescein staining, MEAN, DAY 7: 7 days after BTX-B injection; for Corneal fluorescein staining, MEAN, DAY 7 / Corneal fluorescein staining, MEAN, DAY 14: eye drops twice daily in Refresh Celluvisc (A-438079 20 μM, BBG 20 μM, oxATP 300 μM), grade 0 to 4 scale; for Corneal fluorescein staining, MEAN, DAY 14: 14 days after BTX-B injection; for Corneal fluorescein staining, MEAN, DAY 0: day 0, prior to BTX-B injection (baseline), grade on 0 to 4 scale of Table 2; for Effect on corneal fluorescein staining (in words): days 7 and 14, chosen dose, b.i.d. eye drops
[2] = target: T1, mouse P2X7 receptor (Mus musculus, UniProt Q9Z1M0); details: British Journal of Pharmacology 2009 157:1203; cited from earlier work
T1 sequence (Q9Z1M0 1-595): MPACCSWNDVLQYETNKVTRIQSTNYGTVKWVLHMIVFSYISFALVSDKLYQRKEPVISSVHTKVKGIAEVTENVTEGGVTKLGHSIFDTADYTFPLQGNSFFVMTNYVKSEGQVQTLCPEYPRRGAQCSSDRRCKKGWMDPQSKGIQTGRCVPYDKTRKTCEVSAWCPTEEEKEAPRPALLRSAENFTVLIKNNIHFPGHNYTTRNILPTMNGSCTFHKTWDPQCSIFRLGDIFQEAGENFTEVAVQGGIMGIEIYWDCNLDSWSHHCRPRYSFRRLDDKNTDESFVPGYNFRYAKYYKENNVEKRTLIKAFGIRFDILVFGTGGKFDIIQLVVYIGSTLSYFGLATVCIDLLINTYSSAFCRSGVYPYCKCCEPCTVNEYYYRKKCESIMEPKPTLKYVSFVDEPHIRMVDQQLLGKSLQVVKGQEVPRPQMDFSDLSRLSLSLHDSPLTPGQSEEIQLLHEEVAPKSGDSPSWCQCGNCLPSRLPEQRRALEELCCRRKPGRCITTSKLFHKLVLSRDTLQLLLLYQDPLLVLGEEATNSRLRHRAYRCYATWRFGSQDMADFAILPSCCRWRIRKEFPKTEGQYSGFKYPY

[3] = Preservation of 1 μM BBG ophthalmic composition in containers at 60° C. for 2 days; format: physicochemical; details: 1 μM BBG in BSS, PET, polypropylene, polyethylene and glass containers
Procedure: BSS Sterile Irrigating Solution is obtained from Alcon Laboratories, Ft. Worth, Tex. BBG is obtained from Sigma Aldrich, St. Louis, Mo. With moderate stirring in a homomixer, 856 mg of BBG is added to 1 liter of BSS at room temperature. The mixture is then stirred until the BBG is completely in solution. This solution is a 1 mM stock solution. One ml of the stock solution is then added to one liter of BSS to yield the ophthalmic composition, which is 1 μM BBG in BSS. The ophthalmic composition is filtered through a membrane filter (0.45 μm pore diameter, Millipore), filled in a 15 mL polyethylene terephthalate eye drop container, a polypropylene container, a polyethylene container, and a glass container and preserved at 60° C. for 2 days. The amount of BBG from each container is measured before and after preservation.

Row | Structure (SMILES) | Corneal fluorescein staining, MEAN, DAY 7 [1] | Corneal fluorescein staining, MEAN, DAY 14 [1] | Corneal fluorescein staining, MEAN, DAY 0 [1] | Effect on corneal fluorescein staining (in words) [1] | IC50 [2] [µM] | Degradation of active ingredient after preservation [3]
1 | Clc1cccc(-c2nnnn2Cc2cccnc2)c1Cl [A-438079] | 1.70 | 2.70 | 0.00 | did not attenuate fluorescein staining | – | –
2 | COc1ccc(CC(=O)NC(N=C(NC#N)Nc2cccc3ncccc23)C(C)(C)C)cc1OC (centres unmarked) [A-740003] | – | – | – | – | ~1 | –
3 | CCOc1ccc(Nc2ccc(/C(=C3C=C/C(=[N+](/CC)Cc4cccc(S(=O)(=O)[O-])c4)C=C/3C)c3ccc(N(CC)Cc4cccc(S(=O)(=O)[O-])c4)cc3C)cc2)cc1.[Na+] [BBG, Coomassie Brilliant Blue G] | 1.50 | 2.00 | 0.00 | did not attenuate fluorescein staining | – | little degradation
4 | Nc1ncnc2c1ncn2[C@@H](C=O)O[C@@H](C=O)COP(=O)(O)OP(=O)(O)OP(=O)(O)O [oxATP, periodate oxidized ATP] | 0.00 | 0.00 | 0.00 | completely prevented the fluorescein staining; also recorded: remarkably effective in preventing pathology | – | –
